Measured values from patent US9062039B2, “Therapeutic compounds” (CHANGZHOU LE SUN PHARMACEUTICALS LIMITED, priority 2012, dated 2015).
Where two headings read alike, the source gives them in different places.

Assays:
Patient CLL B-cells = assay: Ex vivo CLL assay (Annexin V apoptosis, flow cytometry); assay type: cell-based, human; conditions: up to 48 h
[1] = test system: MCF-7 (human breast carcinoma); assay: 48h MTT proliferation assay; assay type: cell-based
[2] = Determination of pharmacokinetics in mice; assay type: in vivo; conditions: male, CD1, mouse, plasma; Mice PK, 10 mg/kg, po; read-out: Oral bioavailability F %
Procedure: For PK measurements male adult CD1 mice weighing 25-30 g (Charles River) are split into weight matched groups of 3 per group. The mice were held at the scruff of the neck and orally dosed via a metal gavage directly into the stomach. Immediately after dosing mice are returned to their cage, plastic box cage with sawdust bedding, and food and water available. Blood samples were collected from the mouse under anaesthesia by cardiac puncture using a 1 mL syringe and 25 gauge needle at time zero and at intervals up to 8 h. Harvested blood was centrifuged at 7000×G for 2 minutes, and the plasma aspirated and frozen at −20° C. until analysis. Quantitative compound level analysis was carried out using LC-MS/MS methods. Pharmacokinetic data derived using PK Solutions 2.0, non-compartmental analysis. Oral bioavailability (% F) was calculated by taking the ratio of dose-normalised AUC values from oral versus parenteral dosing.

Normal T-cells = assay: Ex vivo CLL assay (Annexin V apoptosis, flow cytometry); assay type: cell-based, human; conditions: up to 48 h
[3] = test system: HCT-116 (human colon carcinoma); assay: 48h MTT proliferation assay; assay type: cell-based
Normal B-cells = assay: Ex vivo CLL assay (Annexin V apoptosis, flow cytometry); assay type: cell-based, human; conditions: up to 48 h
[4] = test system: MCL1, BCL2, XIAP, CCND1 and CCND2 expression in CLL cells; assay: Gene expression profiling (Affymetrix microarray); assay type: cell-based, human
Excerpt: The detailed protocol for sample preparation and microarray processing is available from Affymetrix (http://www.affymetrix.com). […] After second strand synthesis, the resulting cDNA was subjected to an in vitro transcription reaction using a Bioarray kit (Enzo Diagnostics, New York, N.Y., USA) to generate biotinylated cRNA. This was subsequently fragmented and hybridized to the Affymetrix U133 2.0 Gene Chips. After hybridization, each microarray was washed, stained and scanned with an argon-ion confocal laser, with excitation at 488 nm and detection at 570 nm. The significance of differences between experimental conditions was determined using the Student's t test for paired and unpaired observations. To assess the interaction between agents, the median effect method was employed using CalcuSyn software (CalcuSyn; Biosoft International, Ferguson, Mo.). The combination index was calculated for the two-drug combination using an experimentally determined fixed concentration ratio. […] Affymetrix gene expression data were processed using Partek Genomics Suite (Partek Inc. Saint Louis, USA).

[5] = test system: MCL1 transcription in CLL cells; assay: Real-time reverse transcription-PCR of MCL1; assay type: cell-based, human; conditions: 4 h, with and without CD40L co-culture
Procedure: CDKI-73, 100:1) for 4 h using the method described by Walsby et al. (Oncotarget 3, 525-34 (2012)).

[6] = test system: primary CLL cells co-cultured with CD40L-expressing mouse embryonic fibroblasts; assay: Synergy between CDKI-73 and fludarabine under CD40L co-culture; assay type: cell-based, human; conditions: CDKI-73 combined with fludarabine, other two additive
Procedure: Lymphocytes were separated using Ficoll-Hypaque (Sigma, Poole, UK) and autologous plasma was collected for use in some experiments. Separated lymphocytes were maintained in RPMI medium supplemented with 10% fetal bovine serum (FBS), penicillin (50 U/ml), streptomycin (50 μg/ml) and recombinant human IL-4 (R and D Systems, Abingdon, UK) (5 ng/ml). […] The significance of differences between experimental conditions was determined using the Student's t test for paired and unpaired observations. To assess the interaction between agents, the median effect method was employed using CalcuSyn software (CalcuSyn; Biosoft International, Ferguson, Mo.). The combination index was calculated for the two-drug combination using an experimentally determined fixed concentration ratio.

[7] = test system: primary CLL cells co-cultured with CD40L-expressing mouse embryonic fibroblasts; conditions: fludarabine alone; Walsby et al. 2012; cited from earlier work
[8] = MCF7, read-out: 48h-MTT Anti-proliferative activity GI50 MCF-7 (human breast carcinoma), Table 2, 48 h
[9] = MCF7, read-out: 48h-MTT cytotoxicity GI50 MCF-7, Table 1, 48 h
[10] = HCT-116, read-out: 48h-MTT Anti-proliferative activity GI50 HCT-116 (human colon carcinoma), Table 2, 48 h
[11] = HCT-116, read-out: 48h-MTT cytotoxicity GI50 HCT-116, Table 1, 48 h

Row | Structure (SMILES) | Ex vivo efficacy, LD50 Patient CLL B-cells (Patient CLL B-cells) | GI50 [1, 8] | GI50 [1, 9] | bioavailability [2] | Ex vivo efficacy, LD50 Normal T-cells (Normal T-cells) | GI50 [3, 10] | GI50 [3, 11] | Ex vivo efficacy, LD50 Normal B-cells (Normal B-cells) | expression of MCL1, BCL2, XIAP and CCND1 and D2 ([4]; combination 0.1 μM CDKI-73 and 10 μM fludarabine, 4 h) | expression of MCL1, BCL2, XIAP and CCND1 and CCND2 ([4]; single agent, 0.1 μM CDKI-73, 4 h) | MCL1 transcription (QRT-PCR) ([5]; CDKI-73 in combination with fludarabine (100:1)) | MCL1 transcription (QRT-PCR) ([5]; single agent) | samples tested that showed cytotoxic synergy [6] | cytotoxic effects of fludarabine under CD40L co-culture [7]
1 | CNc1nc(C)c(-c2nc(Nc3cccc(S(N)(=O)=O)c3)ncc2C#N)s1 [Comparator, 3-(5-cyano-4-(4-methyl-2-(methylamino)thiazol-5-yl)pyrimidin-2-ylamino)benzenesulfonamide, reference compound] | 0.43 µM | 480 nM | 480 nM | 7% | 350 µM | 430 nM | 440 nM | 89 µM | – | – | – | – | – | –
2 | CNc1nc(C)c(-c2nc(Nc3cccc(S(N)(=O)=O)c3)ncc2F)s1 [Example 1, 3-(5-Fluoro-4-(4-methyl-2-(methylamino)thiazol-5-yl)pyrimidin-2-ylamino)benzene sulfonamide] | 0.08 µM | 50 nM | 30 nM | 56% | 506.3 µM | 60 nM | 30 nM | 40.5 µM | marked repression | down regulated | significantly inhibited | significantly inhibited | 8/10 | –
3 | CNc1nc(C)c(-c2nc(Nc3cccc(S(N)(=O)=O)c3)ncc2Cl)s1 [Example 3, 3-(5-chloro-4-(4-methyl-2-(methylamino)thiazol-5-yl)pyrimidin-2-ylamino)benzene sulfonamide] | – | – | 60 nM | – | – | – | 30 nM | – | – | – | – | – | – | –
4 | Nc1nc(F)nc2c1ncn2[C@@H]1O[C@H](CO)[C@@H](O)[C@@H]1O [fludarabine] | – | – | – | – | – | – | – | – | – | – | – | – | – | completely abrogates
